The record followed here is patent publication US12343430B2, “Methods of improving pharmaceutical substance solubilization and products thereof” (MUDANJIANG LINRUN PHARAMA EXCIPIENTS LLC., priority 2019, dated 2025).

Data set [1] is described as follows: Solubility time profile of co-attrited Carbamazepine at 37° C. (Example 12). The settings on record: 100 mL DI water, 0.45 μm filter, UV 285 nm. The data set is classed as physicochemical. The text has this:
All the final extrudant samples from Examples 8-11 were milled into powder and passed through an 80 mesh screen. […] At each sampling time, the solution sample was taken and filtered through a 0.45 μm syringe microfilter. […] For reference, the API Carbamazepine sample was used as control.

Data set [2] is described as follows: Solubility time profile of co-attrited Carbamazepine at 25° C., HPLC (Example 14). The format is physicochemical. The settings on record: 500 mL DI water, paddle 100 rpm. An excerpt:
At each time interval, a given amount of solution was sampled and tested by an HPLC method.

SMILES strings stand for the structures. Converted amounts (≈) assume the structure as drawn.

On to `NC(=O)N1c2ccccc2C=Cc2ccccc21` [Carbamazepine API, Carbamazepine], for which the figures for the Solubility in data set [1] (60 min) and in data set [1] (180 min) were 0.320 mg/mL (≈ 1350 µM) and 0.288 mg/mL (≈ 1220 µM), respectively. Moreover, the solubility at 5 min in data set [1] (deionised water, thermodynamic from solid, 5 min) came out at 404 µg/mL (≈ 1710 µM); in data set [2] (deionised water, thermodynamic from solid, 5 minutes, read-out: Solubility, drug concentration), 89.2 µg/mL (≈ 377 µM). The solubility at 10 min stood at 402 µg/mL (≈ 1700 µM) in data set [1] (deionised water, thermodynamic from solid, 10 min) and 176 µg/mL (≈ 743 µM) in data set [2] (deionised water, thermodynamic from solid, 10 minutes, read-out: Solubility, drug concentration). The solubility at 15 min in data set [1] (deionised water, thermodynamic from solid, 15 min) worked out at 401 µg/mL (≈ 1700 µM). This compound also yielded a solubility at 90 min in data set [1] (deionised water, thermodynamic from solid, 90 min) of 316 µg/mL (≈ 1340 µM). Besides, the solubility at 120 min in data set [1] (deionised water, thermodynamic from solid, 120 min) was 303 µg/mL (≈ 1280 µM). Besides, the “Solubility, drug concentration” value in data set [2] (15 minutes) is 225.68 µg/mL (≈ 955 µM); in data set [2] (30 minutes), 202.16 µg/mL (≈ 856 µM). In addition, the solubility at 45 min in data set [2] (deionised water, thermodynamic from solid, 45 minutes, read-out: Solubility, drug concentration) is 175 µg/mL (≈ 741 µM). Moreover, in data set [2] (deionised water, thermodynamic from solid, 60 minutes, read-out: Solubility, drug concentration), the solubility at 60 min was found to be 173 µg/mL (≈ 731 µM).
